The record followed here is patent publication US20100311965A1, “2-AMINOQUINAZOLINE DERIVATIVE” (CARNA BIOSCIENCES INC., priority 2007, published 2010).

Assay [1] concerns Rat basophilic cells RBL-2H3. Put plainly: Action against IgE-induced degranulation (β-hexosaminidase release). The conditions noted are these: RBL-2H3 cells, anti-DNP-IgE / DNP-BSA, read-out: inhibitory activity against IgE-induced degranulation. It is filed as cell-based. The method, then:
An inhibitory action against SYK was evaluated by an inhibitory action against degranulation of basophils induced by IgE. Rat basophilic cells RBL-2H3 were incubated with an anti-DNP-IgE antibody (1 μg/mL, Zymed) overnight. After washing cells twice with HBSS, an antigen DNP-BSA (1 μg/mL, LSL) was added, followed by incubation for 30 minutes. The supernatant was taken and an activity of β-hexosaminidase in the solution isolated by degranulation was measured using p-nitrophenyl-N-β-D-glucosaminide as a substrate. Using an absorbance meter (Spectra MAX Pro, Molecular Devices), each absorbance at 405 nm and 570 nm of the solution was measured and an increase in the amount was taken as an enzyme activity. 10 minutes before the addition of an antigen, a test material and a solvent (0.1% DMSO) were added to cells. Inhibition rate (%) against degranulation was calculated by the following equation.
Inhibition rate (%)=(1−(A−C)/(B−C))×100
where A denotes an increase in absorbance of a test material group, B denotes an increase in absorbance of a solvent group, and C denotes an increase in absorbance of a solvent group which is not stimulated by an antigen.

For the next assay, the target named is T1, Syk kinase (Homo sapiens, UniProt P43405).
T1 construct: purchased Carna Biosciences Inc. (Kobe) 08-176
The assay can be described thus: Kinase activity, mobility shift assay (MSA), Syk. It is filed as biochemical. The note with it: read-out: inhibitory activity against Syk kinase. The method, then:
(§1) A test compound was dissolved in DMSO to obtain a 10 mM test compound solution, which was stored in a dark place at −20° C. until measurement. When bioactivity (kinase activity) is measured, a test compound solution is diluted with DMSO so that the concentration becomes 100 times higher than […], and then diluted 25 times (DMSO concentration is 4%) with an assay buffer described hereinafter.
Products manufactured by Carna Biosciences Inc. (Kobe) used as protein kinases (recombinant human kinases) in the test are as follows:
SYK (product number: 08-176), JAK3 (product number: 08-046), FLT3 (product number: 08-154), PDGFRα (PDGFRA) (product number: 08-157), TRKA (NTRK1) (product number: 08-186), KDR (product number: 08-191), CDK2/cycA (product number: 04-103), and AurA (AURKA) (product number: 05-101).
(§2) Kinase activity was measured by a mobility shift assay (MSA) method using QuickScout Screening Assist™ MSA (commercially available kit, manufactured by Carna Biosciences Inc.)
5 μl of a test compound solution (the concentration is 4 times of the final concentration) dissolved or suspended in an assay buffer [20 mM HEPES, 0.01% Triton™ X-100, 1 mM dithiothreitol, pH 7.5] or 5 μl of a solvent (4% DMSO-assay buffer) was charged in a 384 well plate made of polypropylene (product number 781280, manufactured by Greiner Bio-One Co., Ltd.). Then, 5 μl of ATP/substrate/metal solution of QuickScout Screening Assist MSA was added. Furthermore, 10 μl of a kinase solution diluted with assay buffer was added and the reaction was initiated. However, only assay buffer (10 μl) was added to blank. The concentration of kinase and reaction conditions were controlled in accordance with the protocol of QuickScout Screening Assist MSA. Then, the reaction was terminated by adding 60 μl of termination buffer of QuickScout Screening Assist MSA and the amount of a substrate (S) and a phosphorylated substrate (P) in the reaction solution were determined in accordance with the protocol of QuickScout Screening Assist MSA using LabChip3000 (manufactured by Caliper Life Sciences Co., MA, USA), and also inhibition of the test compound at a concentration of 0.01, 0.1 and 1 μM was measured, respectively. The amounts of S and P were expressed by the height of each separated peak. Inhibition (%) of the test compound was calculated in accordance with the following equation:
Inhibition (%)=(1−(C−A)/(B−A))×100
where A denotes blank, B denotes a solvent and C denotes P/(P+S) of a well of the compound.

A further assay has as its target T2, AurA kinase (Homo sapiens, UniProt O14965).
T2 construct: purchased Carna Biosciences Inc. (Kobe) 05-101
T2 sequence (O14965 1-403): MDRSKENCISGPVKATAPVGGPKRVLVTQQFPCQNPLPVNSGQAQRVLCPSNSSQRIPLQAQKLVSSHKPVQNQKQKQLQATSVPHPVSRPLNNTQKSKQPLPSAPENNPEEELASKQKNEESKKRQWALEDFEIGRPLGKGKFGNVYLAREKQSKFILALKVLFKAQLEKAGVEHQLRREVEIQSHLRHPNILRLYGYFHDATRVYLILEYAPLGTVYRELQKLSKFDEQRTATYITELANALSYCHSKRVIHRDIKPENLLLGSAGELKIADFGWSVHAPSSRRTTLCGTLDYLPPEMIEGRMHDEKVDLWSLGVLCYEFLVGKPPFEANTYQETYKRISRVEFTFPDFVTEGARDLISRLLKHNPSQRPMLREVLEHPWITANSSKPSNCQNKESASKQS
Put plainly: Kinase activity, mobility shift assay (MSA), AurA. It is filed as biochemical. The note with it: read-out: inhibitory activity against AurA kinase. How it is done:
as §1
(§3) Products manufactured by Carna Biosciences Inc. (Kobe) used as protein kinases (recombinant human kinases) in the test are as follows: […]
as §2
(§4) 5 μl of a test compound solution (the concentration is 4 times of the final concentration) dissolved or suspended in an assay buffer [20 mM HEPES, 0.01% Triton™ X-100, 1 mM dithiothreitol, pH 7.5] or 5 μl of a solvent (4% DMSO-assay buffer) was charged in a 384 well plate made of polypropylene (product number 781280, manufactured by Greiner Bio-One Co., Ltd.). […] Inhibition (%) of the test compound was calculated in accordance with the following equation: […]

A further assay concerns the target T3, JAK3 (Homo sapiens, UniProt P52333).
T3 construct: purchased Carna Biosciences Inc. (Kobe) 08-046
T3 sequence (P52333 1-1124): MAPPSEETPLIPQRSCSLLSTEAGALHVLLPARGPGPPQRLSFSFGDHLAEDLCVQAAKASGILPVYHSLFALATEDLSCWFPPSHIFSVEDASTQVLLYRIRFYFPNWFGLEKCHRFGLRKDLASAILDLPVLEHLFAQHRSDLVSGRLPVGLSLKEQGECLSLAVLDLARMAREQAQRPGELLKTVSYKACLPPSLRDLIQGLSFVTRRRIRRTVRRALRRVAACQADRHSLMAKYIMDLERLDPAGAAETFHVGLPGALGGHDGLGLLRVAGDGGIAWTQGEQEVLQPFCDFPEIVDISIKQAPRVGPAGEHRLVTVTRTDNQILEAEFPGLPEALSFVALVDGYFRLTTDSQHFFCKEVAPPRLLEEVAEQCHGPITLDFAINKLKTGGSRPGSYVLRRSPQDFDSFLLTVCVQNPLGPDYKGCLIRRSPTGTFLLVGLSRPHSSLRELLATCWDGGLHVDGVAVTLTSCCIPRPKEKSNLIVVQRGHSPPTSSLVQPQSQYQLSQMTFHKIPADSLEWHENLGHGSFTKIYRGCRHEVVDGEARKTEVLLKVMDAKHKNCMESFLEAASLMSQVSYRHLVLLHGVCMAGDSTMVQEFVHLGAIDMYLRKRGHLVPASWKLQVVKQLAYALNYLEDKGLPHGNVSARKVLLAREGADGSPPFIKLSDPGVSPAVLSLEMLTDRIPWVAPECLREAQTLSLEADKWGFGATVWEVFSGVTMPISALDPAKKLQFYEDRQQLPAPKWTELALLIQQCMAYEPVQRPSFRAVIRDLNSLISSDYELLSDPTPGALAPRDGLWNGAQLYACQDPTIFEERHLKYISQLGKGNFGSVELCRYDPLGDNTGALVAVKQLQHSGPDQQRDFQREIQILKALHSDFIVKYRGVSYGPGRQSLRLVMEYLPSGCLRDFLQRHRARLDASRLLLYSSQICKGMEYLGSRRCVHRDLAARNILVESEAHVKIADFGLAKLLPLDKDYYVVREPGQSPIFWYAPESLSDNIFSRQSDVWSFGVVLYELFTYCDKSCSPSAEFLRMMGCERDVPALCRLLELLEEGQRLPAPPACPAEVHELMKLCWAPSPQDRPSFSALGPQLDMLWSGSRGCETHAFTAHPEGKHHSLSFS
The assay can be described thus: Kinase activity, mobility shift assay (MSA), JAK3. It is filed as biochemical. The conditions noted are these: read-out: inhibitory activity against JAK3 kinase. The method, then:
as §1, §3, §2, §4

In the next assay the target is JAK2 (Homo sapiens, UniProt O60674). Put plainly: Kinase activity, mobility shift assay (MSA), JAK2. It is filed as biochemical. The conditions noted are these: read-out: inhibitory activity against JAK2 kinase.
Chain of JAK2 (O60674 whole entry): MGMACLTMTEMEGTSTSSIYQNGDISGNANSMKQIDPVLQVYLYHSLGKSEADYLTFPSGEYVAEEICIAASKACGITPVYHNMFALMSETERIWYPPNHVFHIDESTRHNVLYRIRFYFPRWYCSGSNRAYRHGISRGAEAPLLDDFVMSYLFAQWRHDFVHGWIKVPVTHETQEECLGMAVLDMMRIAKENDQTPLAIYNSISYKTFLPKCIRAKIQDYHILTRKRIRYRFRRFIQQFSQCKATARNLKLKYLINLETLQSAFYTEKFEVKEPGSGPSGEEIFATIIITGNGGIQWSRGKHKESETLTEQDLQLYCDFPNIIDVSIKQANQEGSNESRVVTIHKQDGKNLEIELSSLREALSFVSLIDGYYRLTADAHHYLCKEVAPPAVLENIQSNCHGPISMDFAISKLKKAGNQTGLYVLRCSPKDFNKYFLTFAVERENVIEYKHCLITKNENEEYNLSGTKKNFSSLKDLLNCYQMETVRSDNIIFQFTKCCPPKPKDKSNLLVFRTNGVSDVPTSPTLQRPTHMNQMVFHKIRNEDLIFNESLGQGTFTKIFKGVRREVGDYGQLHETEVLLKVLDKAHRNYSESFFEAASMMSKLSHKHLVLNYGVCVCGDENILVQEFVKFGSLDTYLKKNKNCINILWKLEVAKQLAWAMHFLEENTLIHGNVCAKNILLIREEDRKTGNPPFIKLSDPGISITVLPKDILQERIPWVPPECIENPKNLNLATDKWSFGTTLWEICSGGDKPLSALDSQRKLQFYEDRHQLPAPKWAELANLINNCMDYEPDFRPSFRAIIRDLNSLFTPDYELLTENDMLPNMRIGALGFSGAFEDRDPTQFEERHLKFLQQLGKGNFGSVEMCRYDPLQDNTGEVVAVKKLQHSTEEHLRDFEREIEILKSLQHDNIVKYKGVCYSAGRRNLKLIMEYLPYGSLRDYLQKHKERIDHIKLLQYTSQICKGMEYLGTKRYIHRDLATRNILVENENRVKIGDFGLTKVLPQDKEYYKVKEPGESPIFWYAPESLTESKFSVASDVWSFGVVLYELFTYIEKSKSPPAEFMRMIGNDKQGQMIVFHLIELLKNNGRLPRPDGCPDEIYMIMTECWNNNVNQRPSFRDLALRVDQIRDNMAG

In the case of `Cc1cccc2cnc(Nc3cc(O)c4cn[nH]c4c3)nc12` [Example 82, 8-methyl-N-(4-hydroxy-1H-indazol-6-yl)quinazoline-2-amine], in assay [1], the inhibition at 0.05 µM is at least 50%. In addition, the inhibition at 0.1 µM at Syk kinase was at least 50%.

Regarding `Cc1cccc2cnc(Nc3ccc4cc[nH]c4c3)nc12` [Example 5, N-(1H-indol-6-yl)-8-methylquinazoline-2-amine], at AurA kinase, the inhibition at 0.1 µM is at least 50%.

`Cc1nc2c(N)cc(Nc3ncc4cccc(C)c4n3)cc2[nH]1` [Example 88, 8-methyl-N-(2-methyl-4-amino-1H-benzo[d]imidazol-6-yl)quinazoline-2-amine]: the inhibition at 0.05 µM in assay [1] was at least 50%. The inhibition at 0.1 µM at Syk kinase is at least 50%.

On to `COc1ccc(Nc2ncc3cccc(C)c3n2)cc1OC` [Example 30], for which the inhibition at 0.1 µM at JAK3 and at JAK2 was at least 50% in each case.

Turning to `Cc1c(N2CCN(C)CC2)ccc2cnc(Nc3ccc4cn[nH]c4c3)nc12` [Example 63, N-(1H-indazol-6-yl)-8-methyl-7-(4-methylpiperazin-1-yl)quinazoline-2-amine], in assay [1], the inhibition at 0.05 µM is at least 50%.

As to `CCOC(=O)NCc1cc(Nc2ncc3cccc(C)c3n2)cc2[nH]ncc12` [Example 80, Ethyl [6-(8-methylquinazolin-2-ylamino)-1H-indazol-4-yl]methylcarbamate], in assay [1], the inhibition at 0.05 µM is at least 50%.
